Measured values: DBAASP
≈ marks a conversion by molar mass, not a printed value.

Assays:
Test in all cases: ≥ marks a high value that may be exact or a test limit, other limits are often not marked, values filed in µg/mL are converted to µM
[1] = system: Aeromonas salmonicida 97-4
[2] = system: Aeromonas salmonicida 99-1
[3] = system: Candida albicans C627
[4] = system: Escherichia coli CGSC 4908
[5] = system: Escherichia coli DC2
[6] = system: Escherichia coli UB1005
[7] = system: Pseudomonas aeruginosa K799
[8] = system: Pseudomonas aeruginosa Z61
[9] = system: Salmonella enterica serovar typhimurium MS7953s
[10] = system: Salmonella enterica subsp. enterica serovar Typhimurium ATCC 14028s
[11] = system: Staphylococcus aureus C623
[12] = system: Staphylococcus epidermidis C621
[13] = system: Bacillus subtilis ATCC 23857
[14] = system: Cryptococcus neoformans ATCC 28957
[15] = system: Staphylococcus aureus ATCC 25923
[16] = system: Bacillus cereus ATCC 11778
[17] = system: Bacillus thuringiensis ATCC 10792
[18] = system: Enterococcus faecium CCT 5079
[19] = system: Enterococcus hirae ATCC 10541
[20] = system: Escherichia coli ATCC 11775
[21] = system: Escherichia coli ATCC 25922
[22] = system: Escherichia coli CCT 1457
[23] = system: Micrococcus luteus ATCC 4698
[24] = system: Pseudomonas aeruginosa ATCC 13388
[25] = system: Pseudomonas aeruginosa ATCC 15422
[26] = system: Salmonella enterica subsp. enterica serovar Choleraesuis ATCC 10708
[27] = system: Salmonella enterica subsp. enterica serovar Typhimurium ATCC 14028
[28] = system: Staphylococcus aureus CCT 2580
[29] = system: Staphylococcus aureus CCT 6538
[30] = system: Staphylococcus epidermidis ATCC 12228
[31] = system: Streptococcus mutans AU159
[32] = system: Streptococcus pneumoniae ATCC 11733
[33] = system: Escherichia coli K12 MG1655
[34] = system: Escherichia coli JW0013

CC[C@H](C)[C@H](NC(=O)[C@H](C)NC(=O)CNC(=O)[C@H](Cc1cnc[nH]1)NC(=O)[C@@H](NC(=O)[C@H](Cc1ccccc1)NC(=O)[C@H](CCCCN)NC(=O)CNC(=O)[C@H](C)NC(=O)[C@H](CCCCN)NC(=O)[C@H](Cc1ccccc1)NC(=O)[C@@H](NC(=O)[C@H](Cc1cnc[nH]1)NC(=O)[C@H](CCCCN)NC(=O)[C@H](Cc1ccccc1)NC(=O)[C@@H](NC(=O)[C@H](CO)NC(=O)CNC(=O)[C@H](Cc1c[nH]c2ccccc12)NC(=O)CNC(=O)[C@H](C)N)[C@@H](C)CC)[C@@H](C)CC)[C@@H](C)CC)C(=O)N[C@@H](CCC(N)=O)C(=O)N[C@@H](C)C(=O)N[C@@H](Cc1cnc[nH]1)C(=O)N[C@@H](CC(N)=O)C(=O)N[C@@H](CC(=O)O)C(C)=O [AGWGSIFKHIFKAGKFIHGAIQAHND]
MIC [1]: 5.61 µM (≈ 16 µg/mL)
MIC [2]: 11.2 µM (≈ 32 µg/mL)
MIC [3]: 22.4 µM (≈ 64 µg/mL)
MIC [4]: 5.61 µM (≈ 16 µg/mL)
MIC [5]: 5.61 µM (≈ 16 µg/mL)
MIC [6]: 5.61 µM (≈ 16 µg/mL)
MIC [7]: 11.2 µM (≈ 32 µg/mL)
MIC [8]: 2.81 µM (≈ 7.99 µg/mL)
MIC [9]: 5.61 µM (≈ 16 µg/mL)
MIC [10]: 22.4 µM (≈ 64 µg/mL)
MIC [11]: 5.61 µM (≈ 16 µg/mL)
MIC [12]: 5.61 µM (≈ 16 µg/mL)

CC[C@H](C)[C@H](NC(=O)[C@H](Cc1ccccc1)NC(=O)[C@H](CC(N)=O)NC(=O)[C@H](Cc1ccc(O)cc1)NC(=O)[C@H](CC(C)C)NC(=O)CN)C(=O)N[C@@H](CCCCN)C(=O)N[C@H](C(=O)N[C@@H](CC(C)C)C(=O)NCC(=O)N[C@@H](CCCN=C(N)N)C(=O)N[C@H](C(=O)N[C@H](C(=O)N[C@@H](Cc1ccccc1)C(=O)NCC(=O)N[C@@H](CC(C)C)C(=O)N[C@@H](Cc1ccc(O)cc1)C(=O)N[C@@H](CCCCN)C(=O)N[C@@H](CCC(N)=O)C(=O)N[C@@H](Cc1ccccc1)C(N)=O)C(C)C)[C@@H](C)O)C(C)C [GLYNFIKVLGRTVFGLYKQF]
MIC [13]: ≥ 256 µM
MIC [14]: ≥ 64 µM
MIC [15]: 16 µM (≈ 37.8 µg/mL)

CC[C@H](C)[C@H](NC(=O)[C@H](C)NC(=O)[C@H](C)NC(=O)[C@H](CCC(N)=O)NC(=O)CNC(=O)[C@H](CC(C)C)NC(=O)[C@H](Cc1cnc[nH]1)NC(=O)[C@H](CCCCN)NC(=O)[C@H](C)NC(=O)CNC(=O)[C@H](CCCCN)NC(=O)[C@H](CCCNC(=N)N)NC(=O)[C@H](CC(C)C)NC(=O)[C@H](Cc1c[nH]c2ccccc12)NC(=O)[C@H](CCCCN)NC(=O)[C@H](CCCCN)NC(=O)[C@H](Cc1c[nH]c2ccccc12)NC(=O)CN)C(=O)N[C@@H](CCCCN)C(=O)NCC(=O)N[C@@H](CC(C)C)C(=O)N[C@@H](C)C(=O)N[C@@H](CO)C(C)=O [GWKKWLRKGAKHLGQAAIKGLAS]
MIC [1]: 0.399 µM (≈ 0.999 µg/mL)
MIC [2]: 0.798 µM (≈ 2 µg/mL)
MIC [3]: 3.19 µM (≈ 7.99 µg/mL)
MIC [4]: 0.399 µM (≈ 0.999 µg/mL)
MIC [5]: 0.399 µM (≈ 0.999 µg/mL)
MIC [6]: 1.6 µM (≈ 4 µg/mL)
MIC [7]: 1.6 µM (≈ 4 µg/mL)
MIC [8]: 0.798 µM (≈ 2 µg/mL)
MIC [9]: 0.399 µM (≈ 0.999 µg/mL)
MIC [10]: 3.19 µM (≈ 7.99 µg/mL)
MIC [11]: 6.39 µM (≈ 16 µg/mL)
MIC [12]: 12.8 µM (≈ 32 µg/mL)

CC[C@H](C)[C@H](N)C(=O)N[C@@H](CC(N)=O)C(=O)N[C@@H](Cc1c[nH]c2ccccc12)C(=O)N[C@@H](CCCCN)C(=O)N[C@@H](CCCCN)C(=O)N[C@H](C(=O)N[C@@H](CCCCN)C(=O)N[C@@H](CCCCN)C(=O)N[C@@H](CCCCN)C(=O)N[C@H](C(=O)N[C@@H](CCCCN)C(=O)NCC(=O)N[C@@H](CCSC)C(=O)N[C@@H](CC(C)C)C(N)=O)C(C)C)[C@@H](C)CC [INWKKIKKKVKGML]
MIC [16]: ≥ 72.9 µM
MIC [17]: ≥ 72.9 µM
MIC [18]: 1.17 µM (≈ 2 µg/mL)
MIC [19]: ≥ 36.8 µM
MIC [20]: 9.33 µM (≈ 16 µg/mL)
MIC [21]: 9.33 µM (≈ 16 µg/mL)
MIC [22]: 0.583 µM (≈ 1 µg/mL)
MIC [23]: 0.583 µM (≈ 1 µg/mL)
MIC [24]: 9.33 µM (≈ 16 µg/mL)
MIC [25]: 9.33 µM (≈ 16 µg/mL)
MIC [26]: 18.1 µM (≈ 31 µg/mL)
MIC [27]: 4.67 µM (≈ 8 µg/mL)
MIC [15]: 1.17 µM (≈ 2 µg/mL)
MIC [28]: 1.17 µM (≈ 2 µg/mL)
MIC [29]: ≥ 36.8 µM
MIC [30]: 0.583 µM (≈ 1 µg/mL)
MIC [31]: 9.33 µM (≈ 16 µg/mL)
MIC [32]: 0.583 µM (≈ 1 µg/mL)

CC[C@H](C)[C@H](N)C(=O)N[C@@H](CC(N)=O)C(=O)N[C@@H](Cc1c[nH]c2ccccc12)C(=O)N[C@@H](CC(C)C)C(=O)N[C@@H](CCCCN)C(=O)N[C@H](C(=O)N[C@@H](C)C(=O)N[C@@H](C)C(=O)N[C@@H](C)C(=O)N[C@H](C(=O)N[C@@H](C)C(=O)NCC(=O)N[C@@H](CCSC)C(=O)N[C@@H](CC(C)C)C(N)=O)C(C)C)[C@@H](C)CC [INWLKIAAAVAGML]
MIC [16]: ≥ 85 µM
MIC [17]: ≥ 85 µM
MIC [18]: ≥ 340 µM
MIC [19]: ≥ 340 µM
MIC [20]: ≥ 340 µM
MIC [21]: 85 µM (≈ 125 µg/mL)
MIC [22]: 21.1 µM (≈ 31 µg/mL)
MIC [23]: ≥ 85 µM
MIC [24]: ≥ 340 µM
MIC [25]: 21.1 µM (≈ 31 µg/mL)
MIC [26]: ≥ 340 µM
MIC [27]: 340 µM (≈ 500 µg/mL)
MIC [15]: 170 µM (≈ 250 µg/mL)
MIC [28]: 0.68 µM (≈ 0.999 µg/mL)
MIC [29]: ≥ 170 µM
MIC [30]: 42.8 µM (≈ 63 µg/mL)
MIC [31]: ≥ 340 µM
MIC [32]: 1.36 µM (≈ 2 µg/mL)

CC[C@H](C)[C@H](NC(=O)CNC(=O)[C@@H](NC(=O)[C@H](CCCCN)NC(=O)[C@H](C)NC(=O)[C@H](CC(C)C)NC(=O)[C@H](CS)NC(=O)[C@H](CCCCN)NC(=O)[C@H](Cc1c[nH]c2ccccc12)NC(=O)[C@@H](N)CCCCN)C(C)C)C(=O)N[C@@H](C)C(=O)N[C@@H](C)C(=O)N[C@@H](Cc1cnc[nH]1)C(=O)O [KWKCLAKVGIAAH]
MIC [33]: ≥ 89.8 µM

CC[C@H](C)[C@H](NC(=O)[C@H](CCCN=C(N)N)NC(=O)[C@H](CCCN=C(N)N)NC(=O)[C@@H]1CCCN1C(=O)[C@@H]1CCCN1C(=O)[C@H](CCCN=C(N)N)NC(=O)[C@@H]1CCCN1C(=O)[C@H](CCCN=C(N)N)NC(=O)[C@@H]1CCCN1C(=O)[C@H](CC(C)C)NC(=O)[C@H](Cc1ccc(O)cc1)NC(=O)[C@@H]1CCCN1C(=O)CNC(=O)[C@H](CCCCN)NC(=O)[C@H](CC(=O)O)NC(=O)[C@@H](N)C(C)C)C(=O)N[C@@H](Cc1ccc(O)cc1)C(=O)N[C@@H](CC(N)=O)C(=O)N[C@@H](CCCN=C(N)N)C(N)=O [VDKGPYLPRPRPPRRIYNR]
MIC [34]: 1.4 µM (≈ 3.3 µg/mL)

CC[C@H](C)[C@H](NC(=O)[C@H](CCCN=C(N)N)NC(=O)[C@H](CCCN=C(N)N)NC(=O)[C@@H]1CCCN1C(=O)[C@@H]1CCCN1C(=O)[C@H](CCCN=C(N)N)NC(=O)[C@@H]1CCCN1C(=O)[C@H](CCCN=C(N)N)NC(=O)[C@@H]1CCCN1C(=O)[C@H](CC(C)C)NC(=O)[C@H](CCCN=C(N)N)NC(=O)[C@@H]1CCCN1C(=O)[C@H](CCCCN)NC(=O)[C@H](CCCCN)NC(=O)[C@H](CC(=O)O)NC(=O)[C@@H](N)C(C)C)C(=O)N[C@@H](Cc1ccc(O)cc1)C(=O)N[C@@H](CC(N)=O)C(=O)N[C@@H](CCCN=C(N)N)C(N)=O [VDKKPRLPRPRPPRRIYNR]
MIC [34]: 0.663 µM (≈ 1.6 µg/mL)
